The results in this text go back to patent US20120149735A1, “1,4-Dihydropyridine Derivatives and Their Uses” (CENTRE HOSPITALIER REGIONAL UNIVERSITAIRE DE LILLE, priority 2009, published 2012).

Where two headings read alike, the source gives them in different places. A value given as a limit tells only on which side of the number the result lay.

For orientation: melting point means the temperature, or range, at which the solid turns liquid. As usually defined, the Ki is a dissociation constant, usually derived from enzyme kinetics or from competition with a known ligand. A word on the Emax: it is the size of the effect at its maximum, as opposed to the concentration needed. One may read the EC50 as the concentration giving half of the maximal effect. A higher EC50 goes with lower potency in that assay.

Series [1] concerns the target T1, hCB2 cannabinoid receptor (Homo sapiens, UniProt P34972).
T1 construct: purchased PerkinElmer (Belgium)
The series can be described thus: Competition binding assay, hCB2 membranes, [3H]-CP-55,940. The method, then:
hCB1 and hCB2 membranes were purchased from PerkinElmer (Belgium). […] Glass fiber filters were purchased from Whatman (Maidstone, U.K.), while Aqualuma was from PerkinElmer (Schaesberg, The Netherlands). Stock solutions of the compounds were prepared in DMSO and further diluted […] with the binding buffer to the desired concentration. Final DMSO concentrations in the assay were less than 0.1%.
The test compounds were present at varying concentrations and the non-specific binding was determined in the presence of 10 μM HU-210. After 1 h the incubation was stopped and the solutions were rapidly filtered through 0.5% PEI pretreated GF/B glass fiber filters on a M-48T Brandell cell harvester and washed twice with 5 mL ice-cold binding buffer without serum albumin. […] Assays were performed at least in triplicate.
(§1) IC50 and EC50 values were determined by non-linear regression analysis performed using the GraphPad prism 4.0 program (GraphPad Software, San Diego). The Ki values (expressed as pKi) were calculated based on the Cheng-Prusoff equation: Ki=IC50/(1+L/Kd). Statistical signification of [^35S]-GTPγS assay results was assessed using an one-way ANOVA followed by a Dunett post-test.

A further series deals with T2, hCB2 receptor (Homo sapiens, UniProt P34972).
T2 construct: purchased PerkinElmer (Belgium)
Put plainly: [35S]-GTPγS binding assay (CB2 functional activity assay). Type of series: biochemical. To be noted: for EC50: [35S]-GTPγS binding, hCB2. The method, then: The Emax value is determined by a CB2 functional activity assay (19, 20).
[^35S]-GTPγS binding Assays
[^35S]-GTPγS (1173 Ci/mmol) was purchased from Amersham (Roosendaal, The Netherlands). The binding experiments were performed at 30° C. in plastic tubes containing 40 μg protein in 0.5 mL (final volume) of binding buffer (50 mM Tris-HCl, 3 mM MgCl2, 1 mM EDTA, 100 mM NaCl, 0.1% bovine serum albumin, pH 7.4) supplemented with 20 μM GDP.
The assay was initiated by the addition of [^35S]-GTPγS (0.05 nM, final concentration). The tubes were incubated for 1 h. The incubations were terminated by the addition of 5 mL ice-cold washing buffer (50 mM Tris-HCl, 3 mM MgCl2, 1 mM EDTA, 100 mM NaCl). The suspension was immediately filtered through GF/B filters using a 48-well Brandell cell harvester and washed twice with the same ice-cold buffer. The radioactivity on the filters was counted as mentioned above. Assays were performed in triplicate.
as §1

The subject of the next series is TNBS-induced colitis. The series can be described thus: TNBS-induced colitis in mice. The series is classed as in vivo, C57B16 mice. To be noted: for colitis macroscopic score (Wallace criteria, scale 0 to 10): intraperitoneally once daily from 3 days before TNBS, killed 3 days after TNBS, TNBS only 3.1±0.3; for histological score (Ameho criteria, scale 0 to 6): intraperitoneally once daily, TNBS only 3.7±1.

Setting [2] is: hCB2 membranes, [3H]-CP-55,940 (1 nM), 30° C., 1 h, read-out: Ki CB2.
The mark [3] stands for this setting: read-out: binding affinity (Ki) at the CB2 receptor.
The mark [4] stands for this setting: CB2 functional activity assay, basal = 100%, read-out: Emax, bound stated.
[5] abbreviates: percentage of stimulation of [35S]-GTPγS binding, basal value set at 100%, read-out: Functional activity at CB2 EMax.

T2 sequence (P34972 whole entry): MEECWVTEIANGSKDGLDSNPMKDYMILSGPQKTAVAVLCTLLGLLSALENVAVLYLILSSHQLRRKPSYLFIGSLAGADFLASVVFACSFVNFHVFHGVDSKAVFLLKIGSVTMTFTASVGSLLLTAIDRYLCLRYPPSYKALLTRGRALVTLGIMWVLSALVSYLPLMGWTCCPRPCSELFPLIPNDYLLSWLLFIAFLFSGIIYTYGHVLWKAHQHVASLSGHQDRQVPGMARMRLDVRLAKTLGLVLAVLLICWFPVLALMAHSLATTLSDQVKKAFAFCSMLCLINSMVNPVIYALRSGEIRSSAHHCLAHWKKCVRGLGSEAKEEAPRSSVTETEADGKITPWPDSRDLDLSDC
T1 sequence (P34972 whole entry): as above

`CCn1cc(C(=O)NC(C)C23CC4CC(CC(C4)C2)C3)c(=O)cc1-c1ccccc1` [Compound 5, (R,S)—N-3-(1-(1-Adamantyl)ethyl)-1-ethyl-4-oxo-6-phenyl-1,4-dihydropyridine-3-carboxamide]: the melting point was 224 °C. The inhibitory constant (Ki) in series [1] (setting [2]) was found to be 414 ± 61 nM. Further, in series [1] (setting [3]), the Ki is < 500 nM.
The compound `CCCCCn1cc(C(=O)NC23CC4CC(CC(C4)C2)C3)c(=O)cc1-c1ccccc1` [Compound 11, N3-(1-Adamantyl)-4-oxo-1-pentyl-6-phenyl-1,4-dihydropyridine-3-carboxamide] yielded a melting point of 145 °C. In addition, in series [1] (setting [2]), the Ki was found to be 4 ± 0.4 nM.
Take `CCCCCn1cc(C(=O)NC2CCCCC2)c(=O)cc1-c1ccccc1` [Compound 13, N3-(Cyclohexyl)-4-oxo-1-pentyl-6-phenyl-1,4-dihydropyridine-3-carboxamide]: the melting point came to 120 °C. Moreover, the “functional character at the CB2 receptor (agonist / inverse agonist)” value at hCB2 receptor (CB2 functional activity assay) is reported as “inverse agonists”. Also, on hCB2 receptor (setting [4]), the Emax was < 62%. The same compound returned an EC50 on hCB2 receptor of 1.9 ± 0.5 nM. The Emax on hCB2 receptor (setting [5]) came to 62 ± 2%. Besides, the Ki in series [1] (setting [2]) came to 10.6 ± 1.1 nM.
As to `CCCCCn1cc(C(=O)NC23CC4CC(CC(C4)C2)C3)c(=O)cc1-c1ccc(Cl)cc1` [Compound 18, N3-(1-Adamantyl)-6-(4-chlorophenyl)-1-pentyl-4-oxo-1,4-dihydropyridine-3-carboxamide], the melting point was 190 °C. The Ki in series [1] (setting [2]) amounted to 79 ± 7 nM.
Turning to `CCCCCn1cc(C(=O)N[C@@H]2CCCc3ccccc32)c(=O)cc1-c1ccccc1` [Compound 15, (R)-4-oxo-1-pentyl-6-phenyl-N-3-(1-(1,2,3,4-tetrahydronaphthyl))-1,4-dihydropyridine-3-carboxamide], the melting point amounted to 139 °C. The “functional character at the CB2 receptor (agonist / inverse agonist)” value at hCB2 receptor (CB2 functional activity assay) was “inverse agonists”. The Emax at hCB2 receptor (setting [4]) was < 62%. For the same compound, a half-maximal response on hCB2 receptor (EC50) required 1.9 ± 0.4 nM. Also, the maximal response (Emax) at hCB2 receptor (setting [5]) is 42 ± 2%. Besides, the Ki in series [1] (setting [2]) is 10.1 ± 1.1 nM.
Turning to JWH-133 [reference compound], in the series on TNBS-induced colitis, the “colitis macroscopic score (Wallace criteria, scale 0 to 10)” value amounted to 2.1±0.6 and the “histological score (Ameho criteria, scale 0 to 6)” value is “induced a decrease of histological scores”. Moreover, in the series with TNBS-induced colitis (vs TNBS only), the “decrease in colitis macroscopic scores” value came to 34%.
As to `CCCCCn1cc(C(=O)NCC23CC4CC(CC(C4)C2)C3)c(=O)cc1-c1ccccc1` [Compound 8, N3-((1-Adamantyl)methyl)-4-oxo-1-pentyl-6-phenyl-1,4-dihydropyridine-3-carboxamide], the melting point was 154 °C. Besides, in series [1] (setting [2]), the Ki was found to be 23.3 ± 1.9 nM.
With `CCCCCn1cc(C(=O)NC23CC4CC(CC(C4)C2)C3)c(=O)cc1C(C)(C)C` [Compound 20, N3-(1-Adamantyl)-6-tert-butyl-1-pentyl-4-oxo-1,4-dihydropyridine-3-carboxamide], in the series with TNBS-induced colitis (TNBS only 20±5), the “MPO activity in colon (neutrophils content)” value was 10±3. Further, the “TNF-alpha mRNA expression in colon” value in the series on TNBS-induced colitis (TNBS only 26±8) is 6±1. Moreover, in the series on TNBS-induced colitis (TNBS only 1610±1041), the “IL-1beta mRNA expression in colon” value was 22±11. In addition, in the series with TNBS-induced colitis, the “colitis macroscopic score (Wallace criteria, scale 0 to 10)” value was 0.8±0.4 and the “histological score (Ameho criteria, scale 0 to 6)” value worked out at 1.8±0.6. For the same compound, in the series on TNBS-induced colitis (vs TNBS only), the “decrease in colitis macroscopic scores” value came out at 74%, the “decrease of IL-1beta level in colon” value worked out at 99%, the “decrease of MPO activity” value is on record as 50% and the “decrease of TNF-alpha level in colon” value worked out at 79%. Moreover, the “inhibition of colitis microscopic score” value in the series with TNBS-induced colitis (vs TNBS only) came out at 51%. Besides, the “functional character at the CB2 receptor (agonist / inverse agonist)” value on hCB2 receptor (CB2 functional activity assay) was “agonists”. Besides, at hCB2 receptor (setting [4]), the Emax was > 135%. The EC50 at hCB2 receptor was determined as 12.2 ± 2.5 nM. Besides, the maximum response (Emax) on hCB2 receptor (setting [5]) turned out to be 212 ± 3%. Further, in series [1] (setting [2]), the inhibition constant (Ki) is 29 ± 3 nM.
As to `CCCCCn1cc(C(=O)NC23CC4CC(CC(C4)C2)C3)c(=O)c(I)c1C` [Compound 52, N3-(1-Adamantyl)-5-iodo-6-methyl-4-oxo-1-pentyl-1,4-dihydropyridine-3-carboxamide], the Ki in series [1] (setting [2]) was 9 ± 1.6 nM; in series [1] (setting [3]), < 500 nM.
In turn, `CCCCCn1cc(C(=O)NC2CCCCC2)c(=O)cc1C(C)(C)C` [Compound 21, N3-(Cyclohexyl)-6-tert-butyl-1-pentyl-4-oxo-1,4-dihydropyridine-3-carboxamide] returned a melting point of 91 °C. In addition, the Ki in series [1] (setting [2]) turned out to be 29 ± 3 nM.
In turn, `CCCCCn1cc(C(=O)NC(C)C23CC4CC(CC(C4)C2)C3)c(=O)cc1-c1ccccc1` [Compound 6, (R,S)—N-3-(1-(1-Adamantyl)ethyl)-4-oxo-1-pentyl-6-phenyl-1,4-dihydropyridine-3-carboxamide] showed a melting point of 169 °C. Further, the “functional character at the CB2 receptor (agonist / inverse agonist)” value on hCB2 receptor (CB2 functional activity assay) is “inverse agonists”. At hCB2 receptor (setting [4]), the Emax was < 62%. The compound also came in with a concentration giving a half-maximal response (EC50) at hCB2 receptor of 6.5 ± 1.5 nM. Moreover, at hCB2 receptor (setting [5]), the Emax came to 46 ± 3%. In series [1] (setting [2]), the Ki was 14.3 ± 2.1 nM. In series [1] (setting [3]), the Ki is < 500 nM.
`CCCCn1cc(C(=O)NC23CC4CC(CC(C4)C2)C3)c(=O)cc1-c1ccccc1` [Compound 10, N3-(1-Adamantyl)-1-butyl-4-oxo-6-phenyl-1,4-dihydropyridine-3-carboxamide]: the melting point stood at 146 °C. Besides, in series [1] (setting [2]), the Ki amounted to 18.4 ± 1.3 nM.
The compound `CCCCCn1cc(C(=O)NC2CCCCC2)c(=O)cc1-c1ccc(Cl)cc1` [Compound 19, 6-(4-Chlorophenyl)-N-3-cyclohexyl-4-oxo-1-pentyl-1,4-dihydropyridine-3-carboxamide] displayed a melting point of 157 °C. The “functional character at the CB2 receptor (agonist / inverse agonist)” value at hCB2 receptor (CB2 functional activity assay) was “inverse agonists”. In addition, on hCB2 receptor (setting [4]), the Emax is < 62%. In addition, the EC50 at hCB2 receptor was found to be 22 ± 4 nM. Further, at hCB2 receptor (setting [5]), the maximum response (Emax) was determined as 39 ± 2%. Besides, in series [1] (setting [2]), the Ki was 78 ± 9 nM.
Regarding `CCCCCCn1cc(C(=O)NC23CC4CC(CC(C4)C2)C3)c(=O)cc1-c1ccccc1` [Compound 12, N3-(1-Adamantyl)-1-hexyl-4-oxo-6-phenyl-1,4-dihydropyridine-3-carboxamide], the melting point was 167 °C. Besides, in series [1] (setting [2]), the Ki is 13.5 ± 0.9 nM.
As to `CCCCCn1cc(C(=O)NC23CC4CC(C)(CC(C)(C4)C2)C3)c(=O)cc1-c1ccccc1` [Compound 9, N3-(1-(3,5-Dimethyl)adamantyl)-4-oxo-1-pentyl-6-phenyl-1,4-dihydropyridine-3-carboxamide], the melting point came out at 133 °C. In addition, the “functional character at the CB2 receptor (agonist / inverse agonist)” value on hCB2 receptor (CB2 functional activity assay) is reported as “inverse agonists”. For the same compound, the Emax at hCB2 receptor (setting [4]) was < 62%. On hCB2 receptor, this compound returned an EC50 of 5.8 ± 1.1 nM. Further, the Emax at hCB2 receptor (setting [5]) was determined as 41 ± 2%. Moreover, the Ki in series [1] (setting [2]) was 6.6 ± 0.7 nM.
Take `CCCCCn1cc(C(=O)NC2CCCc3ccccc32)c(=O)cc1-c1ccccc1` (racemic) [Compound 14, (R,S)-4-oxo-1-pentyl-6-phenyl-N-3-(1-(1,2,3,4-tetrahydronaphthyl))-1,4-dihydropyridine-3-carboxamide]: the melting point was determined as 139 °C. In addition, at hCB2 receptor (CB2 functional activity assay), the “functional character at the CB2 receptor (agonist / inverse agonist)” value is listed as “inverse agonists”. At hCB2 receptor (setting [4]), the Emax was < 62%. The compound also displayed an EC50 on hCB2 receptor of 5.7 ± 0.7 nM. The Emax at hCB2 receptor (setting [5]) was 40 ± 1%. Further, the Ki in series [1] (setting [2]) came out at 30.9 ± 3.3 nM.
As for `CCCCCn1cc(C(=O)NN2CCCCC2)c(=O)cc1-c1ccccc1` [Compound 17, 4-oxo-1-pentyl-6-phenyl-N-3-(piperidin-1-yl)-1,4-dihydropyridine-3-carboxamide], the melting point was determined as 122 °C. The “functional character at the CB2 receptor (agonist / inverse agonist)” value on hCB2 receptor (CB2 functional activity assay) is recorded as “inverse agonists”. The Emax at hCB2 receptor (setting [4]) is < 62%. This compound came in with an EC50 on hCB2 receptor of 26 ± 6 nM. For the same compound, the Emax at hCB2 receptor (setting [5]) is 48 ± 2%. For the same compound, the Ki in series [1] (setting [2]) was 92 ± 7 nM.
Take `CC(NC(=O)c1cn(-c2ccccc2)c(-c2ccccc2)cc1=O)C12CC3CC(CC(C3)C1)C2` [Compound 7, (R,S)—N-3-(1-(1-Adamantyl)ethyl)-1,6-diphenyl-4-oxo-1,4-dihydropyridine-3-carboxamide]: the melting point is > 250 °C. In series [1] (setting [3]), the Ki was > 500 nM.
